Measurements: patent US9359418B2, “Inhibitors of the T cell-specific alternative p38 activation pathway and methods of use” (The United States of America, as represented by the …, priority 2012, dated 2016)

Columns and labels:
CD4+ T cells = experiment: Cellular uptake of FITC conjugated peptides by purified CD4+ T cells; type: cell-based; settings: FITC conjugated peptide, 2 hours at 37° C., flow cytometry
Description: FIG. 1 is a graph showing cellular uptake of (11R)-71-85 and (11R)-Ctrl. Purified CD4^+ T cells were treated with either FITC conjugated (11R)-71-85 or (11R)-Ctrl, or left untreated for 2 hours at 37° C. After incubation, cells were washed and analyzed by flow cytometry for FITC positivity.
To generate a cell-permeable form of the Gadd45α 71-85 peptide, 11 arginine residues were added to the N-terminus to produce a fusion protein referred to herein as (11R)-71-85. Cell-permeability of (11R)-71-85 was tested using purified CD4^+ T cells. (11R)-71-85 and a control peptide fused to 11 arginine residues (referred to as (11R)-Ctrl) were FITC conjugated. Purified CD4^+ T cells were treated with either FITC conjugated (11R)-71-85 or (11R)-Ctrl, or left untreated for 2 hours at 37° C. After incubation, cells were washed and analyzed by flow cytometry for FITC positivity.

[1] = tested on: p38 (alternative activation pathway); experiment: In vitro kinase assay: ATF2 phosphorylation by Zap70-activated p38; type: biochemical; settings: (11R)-71-85 0.2-4.0 μg, (11R)-Ctrl 4.0 μg; 30 minutes at 30° C.; p38 activated with Zap70
Description: Purified p38 proteins were activated by incubating with active Zap70 in kinase buffer for 1 hour. (11R)-71-85 or (11R)-Ctrl was then added and incubated for 30 minutes at 30° C. One μg ATF2 and 10 μCi [^32P]ATP were then added and incubated for 45 minutes at 30° C. Phosphorylated products were resolved by SDS-PAGE, transferred to nitrocellulose membranes, and visualized by phosphorimager.
To test whether (11R)-71-85 can inhibit the alternative p38 activation pathway in vitro, an assay was performed to detect phosphorylation of activating transcription factor 2 (ATF2), a target of activated p38, in the presence and absence of (11R)-71-85. Purified p38 proteins were activated by incubation with active Zap70 in kinase buffer for 1 hour. (11R)-71-85 (0.2, 0.5, 1.0, 2.0 or 4.0 μg) or (11R)-Ctrl (4.0 μg) was then added and incubated for 30 minutes at 30° C. One μg ATF2 and 10 μCi [^32P]ATP were added and incubated for 45 minutes at 30° C. Phosphorylated products were resolved by SDS-PAGE, transferred to nitrocellulose membranes, and visualized by phosphorimager. […] In addition, the decrease in ATF2 phosphorylation was dependent on the dose of (11R)-71-85.

T cells = experiment: Inflammatory cytokine production by T cells (flow cytometry); type: cell-based
From the text: FIGS. 4A-4B are a series flow cytometry plots showing inflammatory cytokine secretion by CD4^+ (FIG. 4A) and CD8^+ (FIG. 4B) T cells. T cells were purified from spleen and stimulated with anti-CD3 plus anti-CD28 for 3 days. Cells were then left unstimulated overnight and treated with the indicated concentrations of (11R)-71-85, control peptide (11R)-Ctrl, or DMSO (no peptide). After treatment, cells were restimulated with either anti-CD3 plus anti-CD28, or PMA plus ionomycin supplemented with monensin. Cytokine expression was measured by flow-cytometry.
To evaluate cytokine production, T cells were purified from spleen and stimulated with anti-CD3 plus anti-CD28 for 3 days. Cells were then left unstimulated overnight and treated with 1 or 2 μM (11R)-71-85 or control peptide (11R)-Ctrl, or with DMSO only. After treatment, cells were restimulated with either anti-CD3 plus anti-CD28 (to stimulate the TCR and the alternative p38 pathway), or PMA plus ionomycin supplemented with monensin (to stimulate the classical p38 pathway). Cytokine expression was measured by flow-cytometry.

Nfatc1 and Irf4 mRNA = Nfatc1 and Irf4 mRNA in spleen T cells after i.v. injection; type: in vivo, mice; settings: 50 μg i.v.; total T cells and CD4+ T cells from spleen
Description: FIG. 8 is a series of graphs showing reduction in expression of Nfatc1 and Irf4 in CD4^+ T cells following injection of (11R)-71-85. WT C57BL/6 mice were injected i.v. with 50 μg of DMSO, (11R)-Scrambled, or (11R)-71-85 and either total T cells or CD4±T cells were purified from spleen at different times. Purified cells were stimulated in vitro with anti-CD3/CD28 for 24 hours and the mRNA levels of the indicated transcription factors were determined by quantitative real-time PCR.
Expression of NFATc1 and IRF4, two transcription factors activated upon TCR stimulation, was also evaluated after intravenous (i.v.) injection of (11R)-71-85. WT C57BL/6 mice were injected i.v. with 50 μg of DMSO, (11R)-Scrambled, or (11R)-71-85, and either total T cells or CD4±T cells were purified from spleen at different times. Purified cells were stimulated in vitro with anti-CD3/CD28 for 24 hours and the mRNA levels of Nfatc1 and Irf4 were determined by quantitative real-time PCR.

[2] = tested on: tumor-infiltrating T cells; experiment: PANC02 model, cytokine expression of tumor infiltrating cells; type: in vivo, mice; settings: 80 μg intra-tumor every other day for 1 week
Description: WT C57BL/6 mice were injected with 7.5×10^5 PANC02 cells. After 16 days, mice were injected with 80 μg of either (11R)-71-85 or (11R)-Scrambled (Scr) every other day for 1 week. Twenty-four hours after the last intra-tumor injection, tumor infiltrating cells were harvested and restimulated with PMA and ionomycin, or left unstimulated, in the presence of Golgi inhibitor for 4 hours. Expression of cytokines (IL-17A and TNFα—FIG. 10A; IL-10 and IFNγ—FIG. 10B) was determined by flow cytometry.
The effect of intra-tumor injection of (11R)-71-85 on cytokine secretion from tumor-infiltrating T cells was also evaluated in mice with pancreatic tumors. WT C57BL/6 mice were injected with 7.5×10^5 PANC02 cells and 16 days later mice received intra-tumor injections of 80 μg of (11R)-71-85 or (11R)-Scrambled every other day for 1 week. Twenty-four hours following the last injection, tumor infiltrating cells were harvested and restimulated with PMA and ionomycin, or left unstimulated, in the presence of Golgi inhibitor for 4 hours. Expression of TNF-α, IFNγ, IL-10 and IL-17 was determined by flow cytometry. […] There was no difference in TNF-α secretion after restimulation, which bypasses TCR signaling and activates the classical MAPK cascade. There was no difference between unstimulated and restimulated cells for the other cytokines tested (IFNγ, IL-10, and IL-17; FIGS. 10A-10B).

- phosphorylation of ATF2 [1]: decrease in phosphorylation of ATF2
Substance: (11R)-71-85: fusion protein: 11 arginine residues added to the N-terminus of the Gadd45α 71-85 peptide (LQIHFTLIQAFCCEN; N-terminal 11 arginine; UniProt P24522 71-85, looked up, fragment)
- cellular uptake (FITC positivity) (CD4+ T cells): taken up by the T cells
- inhibition of production of TNF-α and IFN-γ, 2 μM compared with 1 μM (T cells; 2 μM versus 1 μM): to a greater extent
- cytokine production in response to PMA plus ionomycin (T cells; 1 or 2 μM, restimulated with PMA plus ionomycin): no significant effect
- production of TNF-α in response to TCR stimulation (T cells; 1 or 2 μM, restimulated with anti-CD3 plus anti-CD28): inhibits
- Irf4 mRNA expression following TCR stimulation (Nfatc1 and Irf4 mRNA): inhibits
- Nfatc1 mRNA expression following TCR stimulation (Nfatc1 and Irf4 mRNA): inhibits
- expression of the other cytokines tested (IFNγ, IL-10, and IL-17) ([2]; unstimulated and restimulated cells): no difference
- TNF-α secretion after restimulation with PMA and ionomycin ([2]; versus (11R)-Scrambled): no difference
- TNF-α secretion, unstimulated tumor infiltrating cells ([2]; versus (11R)-Scrambled): reduced
